In paper PMC10564941, “A morpheein equilibrium regulates catalysis in phosphoserine phosphatase SerB2 from Mycobacterium tuberculosis” (Communications Biology, 2023):

Experiments:
[1] = target: T1, MtSerB2 (phosphoserine phosphatase SerB2) (Mycobacterium tuberculosis, UniProt O53289); test: steady-state kinetics, malachite green phosphatase assay; SEC-UV/SAXS dimer-to-trimer shift; format: biochemical
T1 construct: full-length dimer fraction, His-tag cleaved

[2] = tested on: N[C@@H](COP(=O)(O)O)C(=O)O; test: purified protein; conditions: Mg2+ ([…] MgCl2 in assay) active site; uncompetitive substrate inhibition

T1 sequence (O53289 whole entry): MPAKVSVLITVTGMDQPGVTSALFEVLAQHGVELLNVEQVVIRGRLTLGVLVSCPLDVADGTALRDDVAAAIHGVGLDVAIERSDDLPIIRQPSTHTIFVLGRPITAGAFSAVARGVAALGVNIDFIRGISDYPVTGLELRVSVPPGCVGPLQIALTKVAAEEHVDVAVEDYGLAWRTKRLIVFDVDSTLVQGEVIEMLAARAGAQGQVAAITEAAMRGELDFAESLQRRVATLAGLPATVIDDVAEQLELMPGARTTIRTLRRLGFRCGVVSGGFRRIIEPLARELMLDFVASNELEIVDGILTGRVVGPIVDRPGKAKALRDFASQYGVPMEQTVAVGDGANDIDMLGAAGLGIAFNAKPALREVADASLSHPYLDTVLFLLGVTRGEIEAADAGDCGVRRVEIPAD

Compound	Ki [1] [µM]	Km [2] [µM]
N[C@@H](CO)C(=O)O [L-Ser]	22 ± 5.3	–
MtSerB2 (phosphoserine phosphatase SerB2) (Mycobacterium tuberculosis H37Rv)	–	480 ± 170
